Measured values: patent US20240287614A1, “RECIPROCAL MICRORNA-MRNA PAIRINGS AS BIOMARKERS AND THERAPEUTIC TARGETS IN CANCER” (UNIVERSITY OF MARYLAND, EASTERN SHORE, priority 2023, published 2024)

Legend:
Assay type in all cases: cell-based, human
AR = experiment: Western blot of AR in total, cytoplasmic and nuclear protein fractions
From the text: (§1) The human cell lines used in the study included: 22Rv1, LNCaP, PC-3, RC77 T/E and MDA PCa 2b (prostate cancer cell lines), MDA MB 231 and MCF-7 (breast cancer cell lines), HT-29 and SW620 (colon cancer cell lines), A549 and H1299 (lung cancer cell lines). RWPE-1, HMEC, FHC, and BEAS-2B were used as normal control cell lines for prostate, breast, colon, and lung, respectively. Note that 22Rv1 is a castration-resistant […] prostate cancer cell line, while LNCaP and PC-3 were derived from lymph node and bone metastasis of […] prostate cancer patients, respectively. RC77 T/E was derived from a primary prostate cancer patient, and MDA PCa 2b was derived from bone metastasis of an prostate cancer patient. The cell lines described were used as in vitro cell models to evaluate the functional roles of miR-99b-5p/MTOR pairing in the […] prostate cancer, African American prostate cancer and solid tumors in general. The cells were grown in specific cell culture media described as follows: 22Rv1, LNCaP, MCF-7 and H1299 were cultured in RPMI-1640 with 10% fetal bovine serum (FBS), PC-3, A549 and FHC were cultured in DMEM with 10% FBS, RC77 T/E was cultured in Keratinocyte SFM with human recombinant epidermal growth factor (EGF) and bovine pituitary extract (BPE), MDA PCa 2b were cultured in BRFF-HPC1 with 20% FBS, HT-29 was cultured in McCory's with 10% FBS, SW620 and MDA MB 231 were cultured in L-15 with 10% FBS, HMEC was cultured in mammary epithelial cell basal medium with supplements, and BEAS-2B was cultured in BEBM base medium with BEBM supplement kit. Cells were maintained at 37° C. in a 5% CO2 incubator.
(§2) The 22Rv1, LNCaP, PC-3, MDA PCa 2b, MCF7, H1299, A549, HT-29, SW620, MDA MB-231, HMEC and BEAS-2B cells were seeded at a density of 3×10^5 cells/well in 6-well plates. RC77 T/E cells were seeded at a density of 5×10^5 cells/well in 6-well plates. The cells were grown for 24 h and then transfected with nonsense/scrambled RNA (NS) and miR-99b-5p mimic (Ambion) using DharmaFECT4 transfection reagent (Dharmacon). After 24 h, fresh media were applied to replace the transfection reagent-containing media, then the cells were incubated for an additional 24 h.
The total proteins were extracted using M-PER extraction reagent with protease and phosphatase inhibitor cocktail (Thermo Fisher Scientific) according to manufacturer's protocol. […] Equal amounts of proteins were used based on the quantification using BCA assay kit (Thermo Fisher Scientific), and the samples were separated by electrophoresis using NuPAGE 4-12% or 8% Bis-Tris gels (Invitrogen). […] The results were analyzed with SuperSignal ECL substrates (Thermo Fisher Scientific) and a ChemiDoc XRS system (Bio-Rad). […]

mTOR and pmTOR = experiment: Immunofluorescence of mTOR and pmTOR in colon, breast and lung cancer cell lines
From the text: as §1, §2
In this process, 4×10^4 cells were seeded on cover slip and allowed to adhere for 24 h in 5% CO2 incubator at 37° C. All the cells were subjected to immunofluorescence assays 48 h following transfection. Briefly, cells were washed with 1×PBS, fixed in 4% paraformaldehyde, and permeabilized with 0.1% Triton X-100. Cells were then blocked for 1 h with 2% BSA in 1×PBS. […] All labeled and/or prepared cells mounted on glass slides and were visualized by fluorescence microscopy (Olympus). […]

[1] = test system: cancer cell lines (HT-29, SW620, MDA MB 231, MCF-7, A549, and H1299); experiment: TUNEL assay; details: mimic vs NS transfected cancer cells; 48 h
Description: TUNEL assay was carried out according to the manufacturer's protocol (Click-iT™ Plus In-situ Apoptosis Detection with Alexa Fluor Dyes, Thermo Fisher Scientific). Precisely, 4×10^4 cells (HT-29, SW620, MDA MB 231, MCF-7, A549, and H1299) were seeded on coverslips and allowed to adhere for 24 h in 5% CO2 incubator at 37° C. These cells were fixed in 4% paraformaldehyde in 1×PBS after exposure of miR-99b-5p mimic or negative control mimic for 48 h, then washed with PBS three times followed by the incubation with 0.25% Triton X-100 in 1×PBS and ultimately the cells were incubated with differential steps of TUNEL reaction mixture as per the manufacturer's protocol. Lastly, the processed cells were counterstained with DAPI for 5 min, at room temperature in the dark. All labeled and/or prepared cells were mounted on glass slides and were visualized by Olympus BX3 fluorescence microscope (Olympus). Cell images were captured from 3-4 random areas at 10× magnification by using CellSens V1.18 software (Olympus).

[2] = HT-29, SW620, MDA MB 231, MCF-7, A549, H1299, miR-99b-5p transfected vs NS transfected
[3] = six colon, breast, lung cancer cell lines, mimic vs NS

## miR-99b-5p mimic: miRNA mimic of miR-99b-5p (SEQ ID NO: 2, CACCCGUAGAACCGACCUUGCG), purchased from Ambion (listed as RNA, chemistry not given here; listed as Homo sapiens)
AR; 22Rv1 and MDA PCa 2b cells
  cytoplasmic AR (Western blot): slight to moderate decrease
AR; MCF-7, 22Rv1, MDA PCa 2b, mimic vs NS
  AR expression levels, total lysates (Western blot): significantly reduced
AR; MCF-7, 22Rv1, and MDA PCa 2b cells
  nuclear AR protein levels (Western blot): significantly decreased
AR; MCF-7 cells
  cytoplasmic AR (Western blot): no change
mTOR and pmTOR; [2]
  mTOR levels (immunofluorescence): generalized reduction
  pmTOR levels (immunofluorescence): generalized reduction
mTOR and pmTOR; [3]
  cytoplasmic mTOR/nuclear mTOR ratios (immunofluorescence): elevated
  cytoplasmic pmTOR/nuclear pmTOR ratios (immunofluorescence): elevated
[1]
  DNA breakages (TUNEL red fluorescent signals in nuclei): enhanced
